The series deals with U87 tumor. Nature of the series: PET imaging and tissue biodistribution in U87 tumor-bearing mice. The format is in vivo, mouse. Particulars: untitled table, radiolabel and time not given; for Biodistribution: Bladder / Biodistribution: Blood / Biodistribution: Bone / Biodistribution: Fat / Biodistribution: Heart / Biodistribution: Kidney / Biodistribution: Lacrim Gland / Biodistribution: Liver / Biodistribution: Lung / Biodistribution: Muscle / Biodistribution: Pancreas / Biodistribution: Sm Intest / Biodistribution: Spleen / Biodistribution: Stomach / Biodistribution: U87: in %ID/g. More on the design: Biodistribution: Saliv. Gland: unit not given here. As for the experimental part:
Cell uptake assays, flow cytometry, and IHC were performed as described previously. Banerjee et al., 2019; Nimmagadda et al., 2018. PET imaging and biodistribution Sequential PET imaging and biodistribution studies were conducted to quantify and validate PET imaging data. Briefly, tumor-bearing mice were administrated approximately 7.4 MBq of radiotracer in 150 μL saline via tail-vein injection. They were randomized into the indicated groups of 3-4 mice before radiotracer injection.
In Experiment 1, bilateral xenografts of U87 (right flank) and PSMA+ PC3 PIP (left flank) tumors were established in male NSG mice (n=3), which underwent imaging followed by biodistribution over 24 h. […] A biodistribution study was further conducted with U87 tumors at 2 h post-injection (n=3) to compare the tissue distribution properties of ^64Cu-FP-L1 and ^64Cu-FAPI-04.

As for `N#C[C@@H]1CCCN1C(=O)CNC(=O)c1ccnc2ccc(OCCCNC(=O)C(CCNC(=O)c3ccc(F)nc3)NC(=O)CN3CCN(CC(=O)O)CCN(CC(=O)O)CCN(CC(=O)O)CC3)cc12` (some centres unmarked) [SRI-08-15], the “Biodistribution: Saliv. Gland” value came to 8.95 ± 0.98, the “Biodistribution: Bladder” value worked out at 1.67 ± 0.32, the “Biodistribution: Blood” value is given as 3.92 ± 0.39 and the “Biodistribution: Bone” value worked out at 5.97 ± 1.02. Moreover, the “Biodistribution: Fat” value stood at 0.92 ± 0.21, the “Biodistribution: Heart” value was 1.97 ± 0.34, the “Biodistribution: Kidney” value is listed as 2.65 ± 0.27 and the “Biodistribution: Lacrim Gland” value is 8.01 ± 1.01. Further, the “Biodistribution: Liver” value is 2.73 ± 0.64, the “Biodistribution: Lung” value came to 2.90 ± 0.24, the “Biodistribution: Muscle” value came to 3.03 ± 0.63 and the “Biodistribution: Pancreas” value was 7.33 ± 1.73. The “Biodistribution: Sm Intest” value amounted to 3.85 ± 0.77, the “Biodistribution: Spleen” value came to 1.59 ± 0.57, the “Biodistribution: Stomach” value amounted to 1.42 ± 0.56 and the “Biodistribution: U87” value is reported as 20.41 ± 3.28.
As to `N#C[C@@H]1CCCN1C(=O)CNC(=O)c1ccnc2ccc(OCCCNC(=O)CCOCCOCCOCCNC(=O)C(CCNC(=O)c3ccc(F)nc3)NC(=O)CN3CCN(CC(=O)O)CCN(CC(=O)O)CCN(CC(=O)O)CC3)cc12` (some centres unmarked) [SRI-08-27], the “Biodistribution: Saliv. Gland” value is on record as 6.40 ± 1.30, the “Biodistribution: Bladder” value is 1.18 ± 0.13, the “Biodistribution: Blood” value is 12.65 ± 2.31 and the “Biodistribution: Bone” value is given as 2.83 ± 0.36. Further, the “Biodistribution: Fat” value turned out to be 0.45 ± 0.16, the “Biodistribution: Heart” value is 5.39 ± 1.11, the “Biodistribution: Kidney” value came to 3.98 ± 0.66 and the “Biodistribution: Lacrim Gland” value came to 4.62 ± 1.02. For the same molecule, the “Biodistribution: Liver” value came out at 5.15 ± 0.75, the “Biodistribution: Lung” value is 7.76 ± 1.31, the “Biodistribution: Muscle” value is given as 1.55 ± 0.43 and the “Biodistribution: Pancreas” value stood at 7.20 ± 3.00. The “Biodistribution: Sm Intest” value is on record as 6.28 ± 2.63, the “Biodistribution: Spleen” value amounted to 2.59 ± 0.49, the “Biodistribution: Stomach” value was found to be 1.83 ± 0.66 and the “Biodistribution: U87” value turned out to be 6.56 ± 1.76.

(Values after patent US20240382629A1, “HETEROBIVALENT AND HOMOBIVALENT AGENTS TARGETING FIBROBLAST ACTIVATION PROTEIN ALPHA AND/OR PROSTATE-SPECIFIC MEMBRANE ANTIGEN” (The Johns Hopkins University, priority 2021, published 2024).)
